Assay results reported in US12077503B2, “Substituted cyclic amides and their use as herbicides” (FMC CORPORATION, priority 2015, dated 2024).

Experiments:
Format in all cases: in vivo
[1] = tested on: barnyardgrass (Echinochloa crus-galli); assay: Test B flooded paddy test; conditions: Flood, 0 to 100 scale where 0 is no effect and 100 is complete control, 13 to 15 d
Outline: (§1)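 2-leaf plants; pots flooded 3 cm over soil; cpd added to paddy water; depth held; greenhouse 13–15 d; visual rating vs controls, 0 = no effect, 100 = complete control.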

[2] = tested on: ducksalad (Heteranthera limosa); assay: Test B flooded paddy test; conditions: Flood, 0 to 100 scale where 0 is no effect and 100 is complete control, 13 to 15 d
Outline: as §1

rice (Oryra sativa) = assay: Test B flooded paddy test; conditions: Flood, 0 to 100 scale where 0 is no effect and 100 is complete control, 13 to 15 d
Outline: as §1

[3] = tested on: sedge, umbrella (small-flower umbrella sedge, Cyperus difformis); assay: Test B flooded paddy test; conditions: Flood, 0 to 100 scale where 0 is no effect and 100 is complete control, 13 to 15 d
Outline: as §1

[4] = tested on: pigweed (Amaranthus retroflexus); assay: Test A preemergence; conditions: for Plant response rating, Pigweed: 125 g ai/ha
[5] = tested on: barnyardgrass (Echinochloa crus-galli); assay: Test A preemergence; conditions: for Plant response rating, Barnyardgrass: 125 g ai/ha
Outline: (§2)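 Seeded soil received test chemicals as a preemergence directed spray, and seedlings at one to two leaves, 2–10 cm tall, received them postemergence, in a non-phytotoxic, surfactant-containing solvent mixture. Pots were held in a greenhouse for approximately 10 d, then rated for injury from 0, no effect, to 100, complete control.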

Kochia (Kochia scoparia) [6] = assay: Test A preemergence; conditions: for Plant response rating, Kochia: 125 g ai/ha
Outline: as §2

[7] = tested on: ragweed (common ragweed, Ambrosia elatior); assay: Test A preemergence; conditions: for Plant response rating, Ragweed: 125 g ai/ha
Outline: as §2

[8] = tested on: giant foxtail (Setaria faberii); assay: Test A preemergence; conditions: for Plant response rating, Foxtail, Giant: 125 g ai/ha
Outline: as §2

[9] = tested on: ryegrass, Italian (Italian ryegrass, Lolium multiflorum); assay: Test A preemergence; conditions: for Plant response rating, Ryegrass, Italian: 125 g ai/ha
Outline: as §2

[10] = tested on: pigweed (Amaranthus retroflexus); assay: Test A postemergence; conditions: for Pigweed plant response rating: 125 g ai/ha, visual injury rating on 0 to 100 scale (0 no effect, 100 complete control), approx. 10 d; for Plant response rating, Pigweed: 500 g ai/ha
Outline: as §2

[11] = tested on: Galium (catchweed bedstraw, Galium aparine); assay: Test A postemergence; conditions: for Galium plant response rating: 125 g ai/ha, visual injury rating on 0 to 100 scale (0 no effect, 100 complete control), approx. 10 d; for Plant response rating, Galium: 500 g ai/ha
Outline: as §2

[12] = tested on: barnyardgrass (Echinochloa crus-galli); assay: Test A postemergence
Outline: as §2

Kochia (Kochia scoparia) [13] = assay: Test A postemergence; conditions: for Kochia plant response rating: 125 g ai/ha, visual injury rating on 0 to 100 scale (0 no effect, 100 complete control), approx. 10 d; for Plant response rating, Kochia: 500 g ai/ha
Outline: as §2

[14] = tested on: ragweed (common ragweed, Ambrosia elatior); assay: Test A postemergence; conditions: for Ragweed plant response rating: 125 g ai/ha, visual injury rating on 0 to 100 scale (0 no effect, 100 complete control), approx. 10 d; for Plant response rating, Ragweed: 500 g ai/ha
Outline: as §2

[15] = tested on: giant foxtail (Setaria faberii); assay: Test A postemergence; conditions: for Foxtail, Giant plant response rating: 125 g ai/ha, visual injury rating on 0 to 100 scale (0 no effect, 100 complete control), approx. 10 d; for Plant response rating, Foxtail, Giant: 500 g ai/ha
Outline: as §2

[16] = tested on: wheat (Triticum aestivum); assay: Test A postemergence; conditions: for Wheat plant response rating: 125 g ai/ha, visual injury rating on 0 to 100 scale (0 no effect, 100 complete control), approx. 10 d; for Plant response rating, Wheat: 500 g ai/ha
Outline: as §2

corn (Zea mays) = assay: Test A postemergence; conditions: for Corn plant response rating: 125 g ai/ha, visual injury rating on 0 to 100 scale (0 no effect, 100 complete control), approx. 10 d; for Plant response rating, Corn: 500 g ai/ha
Outline: as §2

[17] = tested on: blackgrass (Alopecurus myosuroides); assay: Test A postemergence
Outline: as §2

[18] = tested on: ryegrass, Italian (Italian ryegrass, Lolium multiflorum); assay: Test A postemergence; conditions: for Ryegrass, Italian plant response rating: 125 g ai/ha, visual injury rating on 0 to 100 scale (0 no effect, 100 complete control), approx. 10 d; for Plant response rating, Ryegrass, Italian: 500 g ai/ha
Outline: as §2

[19] = Preemergence, visual injury after approximately 10 d, 0 to 100 scale where 0 is no effect and 100 is complete control
[20] = Preemergence, 500 g ai/ha, visual injury approx. 10 d
[21] = Postemergence, 0 to 100 scale where 0 is no effect and 100 is complete control
[22] = 125 g ai/ha, postemergence, visual injury rating on 0 to 100 scale (0 no effect, 100 complete control), approx. 10 d
[23] = Postemergence, 500 g ai/ha, 0 to 100 scale where 0 is no effect and 100 is complete control
[24] = preemergence, 0 to 100 scale (0 no effect, 100 complete control)
[25] = Preemergence, 500 g ai/ha, 0 is no effect, 100 is complete control
[26] = postemergence, 0 to 100 scale, 0 no effect, 100 complete control
[27] = 500 g ai/ha, postemergence, 0 to 100 scale, 0 no effect, 100 complete control
[28] = Postemergence, 125 g ai/ha, visual injury, 0 to 100 scale (0 no effect, 100 complete control), approx. 10 d

Cc1ccc(C2CNC(=O)C2C(=O)Nc2ccccc2S(C)(=O)=O)c(F)c1 (racemic) [Compound 507]
70: Kochia plant response rating (0 to 100 scale, 0 is no effect, 100 is complete control) (Kochia (Kochia scoparia) [6]; [20]) | Plant response rating, Kochia (Kochia (Kochia scoparia) [13]; [21])
30: Kochia plant response rating (Kochia (Kochia scoparia) [13]; postemergence)
20: Pigweed plant response rating (0 to 100 scale, 0 is no effect, 100 is complete control) [4, 20] | Plant response rating, Galium [11, 21] | Barnyardgrass plant response rating [12, 22] | Plant response rating, Ragweed [14, 21] | Plant response rating, Foxtail, Giant [15, 21]
80: Barnyardgrass plant response rating (0 to 100 scale, 0 is no effect, 100 is complete control) [5, 20]
75: Plant response rating, Ducksalad ([2]; 250 g ai/ha)
60: Plant response rating, Barnyardgrass [12, 23]
0: Plant response rating, Barnyardgrass ([1]; 250 g ai/ha) | Plant response rating, Rice (rice (Oryra sativa); 250 g ai/ha) | Plant response rating, Sedge, Umbrella ([3]; 250 g ai/ha) | Plant response rating, Pigweed [4, 19] | Plant response rating, Kochia (Kochia (Kochia scoparia) [6]; [19]) | Plant response rating, Ragweed [7, 19] | Ragweed plant response rating (0 to 100 scale, 0 is no effect, 100 is complete control) [7, 20] | Plant response rating, Foxtail, Giant [8, 19] | Plant response rating, Ryegrass, Italian [9, 19] | Ryegrass, Italian plant response rating (0 to 100 scale, 0 is no effect, 100 is complete control) [9, 20] | Pigweed plant response rating ([10]; postemergence) | Plant response rating, Pigweed [10, 21] | Galium plant response rating ([11]; postemergence) | Ragweed plant response rating ([14]; postemergence) | Foxtail, Giant plant response rating ([15]; postemergence) | Wheat plant response rating ([16]; postemergence) | Plant response rating, Wheat [16, 21] | Corn plant response rating (corn (Zea mays); postemergence) | Plant response rating, Corn (corn (Zea mays); [21]) | Blackgrass plant response rating [17, 22] | Plant response rating, Blackgrass [17, 23] | Ryegrass, Italian plant response rating ([18]; postemergence) | Plant response rating, Ryegrass, Italian [18, 21]
50: Foxtail, Giant plant response rating (0 to 100 scale, 0 is no effect, 100 is complete control) [8, 20]
40: Plant response rating, Barnyardgrass [5, 19]

O=C1NCC(c2cccc(OCC(F)F)c2)C1C(=O)Nc1ccccc1Cl (stereo not drawn) [Compound 390]
50: Plant response rating, Barnyardgrass ([1]; 500 g ai/ha) | Plant response rating, Barnyardgrass [12, 28]
0: Plant response rating, Rice (rice (Oryra sativa); 500 g ai/ha) | Plant response rating, Sedge, Umbrella ([3]; 500 g ai/ha) | Plant response rating, Pigweed [4, 24] | Pigweed plant response rating (0 to 100 scale) [4, 25] | Plant response rating, Kochia (Kochia (Kochia scoparia) [6]; [24]) | Kochia plant response rating (0 to 100 scale) (Kochia (Kochia scoparia) [6]; [25]) | Plant response rating, Ragweed [7, 24] | Ragweed plant response rating (0 to 100 scale) [7, 25] | Plant response rating, Ryegrass, Italian [9, 24] | Ryegrass, Italian plant response rating (0 to 100 scale) [9, 25] | Pigweed plant response rating ([10]; postemergence) | Galium plant response rating ([11]; postemergence) | Plant response rating, Galium [11, 26] | Kochia plant response rating (Kochia (Kochia scoparia) [13]; postemergence) | Plant response rating, Kochia (Kochia (Kochia scoparia) [13]; [26]) | Ragweed plant response rating ([14]; postemergence) | Plant response rating, Ragweed [14, 26] | Wheat plant response rating ([16]; postemergence) | Plant response rating, Wheat [16, 26] | Corn plant response rating (corn (Zea mays); postemergence) | Plant response rating, Corn (corn (Zea mays); [26]) | Plant response rating, Blackgrass [17, 27] | Plant response rating, Blackgrass [17, 28] | Ryegrass, Italian plant response rating ([18]; postemergence)
60: Plant response rating, Barnyardgrass [5, 24] | Foxtail, Giant plant response rating ([15]; postemergence)
80: Barnyardgrass plant response rating (0 to 100 scale) [5, 25] | Plant response rating, Foxtail, Giant [8, 24] | Plant response rating, Foxtail, Giant [15, 26]
20: Plant response rating, Pigweed [10, 26]
70: Plant response rating, Barnyardgrass [12, 27]
90: Foxtail, Giant plant response rating (0 to 100 scale) [8, 25]
65: Plant response rating, Ducksalad ([2]; 500 g ai/ha)
10: Plant response rating, Ryegrass, Italian [18, 26]
